Results reported in patent US20250134867A1, “METHOD FOR MODULATING LIPID METABOLISM, AMELIORATING NON-ALCOHOLIC FATTY LIVER DISEASE AND METABOLIC SYNDROME BY USING 6-METHOXYBENZOXAZOLINONE” (Taichung District Agricultural Research and Extension …, priority 2023, published 2025).

Columns and labels:
Type in all cases: in vivo
[1] = system: HFD-induced obese C57BL/6J mice; experiment: Fasting blood glucose, IPGTT and insulin resistance in HFD-induced obese mice; conditions: for insulin resistance index HOMA-IR / fasting insulin concentration (insulin expression): 12 weeks; for insulin resistance index HOMA-IR: compared with the HFD group; for fasting insulin concentration (insulin expression): serum; for fasting blood glucose: since the second week, 16 h fasting; for AUC of IPGTT: week 12, glucose 1.0 g/kg i.p., vs HFD group
From the text: The animals used in the examples are described below. 5-week-old male C57BL/6J mice were purchased from The National Laboratory Animal Center, Taipei, Taiwan and were maintained in a temperature-controlled room on a 12-h light-dark cycle. They were housed with four per cage and had free access to food and drinking water. Mice fed with a standard diet and adapted to the environment for 1 week were subsequently divided randomly into five groups. The ND group (n=8) continued on the same diet, whereas the other four groups (n=8 per group) were switched to the HFD (494 kcal/100 g, 45% energy as fat; TestDiet Inc., USA). Among the four HFD groups, three groups started to receive CX at 10 mg/kg/day (CX10 group), CX at 30 mg/kg/day (CX30 group), and epigallocatechin gallate (EGCG) (Sigma, Inc., USA) at 30 mg/kg/day (EGCG30 group) by oral gavage. EGCG was suspended in 0.5% methylcellulose solution for oral administration. Food consumption and weight gain were measured daily and weekly, respectively. After 12 weeks, all mice were sacrificed. Serum samples, liver tissue, epididymis adipose tissue and feces were harvested for further analysis. The experimental protocol was approved by the Animal Research Committee of the National Yang Ming Chiao Tung University (IACUC no. 1091013), and all procedures followed The Guide for the Care and Use of Laboratory Animals (NIH publication, 85-23, revised 1996) and the guidelines of the Animal Welfare Act, Taiwan. The procedure regarding blood glucose and intraperitoneal glucose tolerance test (IPGTT) is as follows. After a 16 h overnight fasting period, whole-blood glucose was measured with a glucose analyzer ([…], Taiwan). An enzymatic assay was used to measure the serum insulin concentration (Cisbio, USA). Intraperitoneal glucose tolerance tests (IPGTTs) were performed in all mice 12 weeks after the start of the study. Mice fasted for 16 h were injected intraperitoneally with glucose 1.0 g/kg body weight, blood glucose levels were measured in tail vain blood at 0, 30, 60, 90, 120 and 150 min.

[2] = system: HFD-induced obese C57BL/6J mice; experiment: Renal function markers in HFD-induced obese mice; conditions: for serum CRE level, difference to ND group: 30 mg/kg/day oral, CX30, ND and EGCG groups compared; for serum CRE level, difference to ND group / serum uric acid (UA) level, difference to ND group: 12 weeks; for serum uric acid (UA) level, difference to ND group: CX 10-30 mg/kg/day, EGCG 30 mg/kg/day oral, compared with ND group
From the text: (§1) The animals used in the examples are described below. 5-week-old male C57BL/6J mice were purchased from The National Laboratory Animal Center, Taipei, Taiwan and were maintained in a temperature-controlled room on a 12-h light-dark cycle. They were housed with four per cage and had free access to food and drinking water. Mice fed with a standard diet and adapted to the environment for 1 week were subsequently divided randomly into five groups. The ND group (n=8) continued on the same diet, whereas the other four groups (n=8 per group) were switched to the HFD (494 kcal/100 g, 45% energy as fat; TestDiet Inc., USA). Among the four HFD groups, three groups started to receive CX at 10 mg/kg/day (CX10 group), CX at 30 mg/kg/day (CX30 group), and epigallocatechin gallate (EGCG) (Sigma, Inc., USA) at 30 mg/kg/day (EGCG30 group) by oral gavage. EGCG was suspended in 0.5% methylcellulose solution for oral administration. Food consumption and weight gain were measured daily and weekly, respectively. After 12 weeks, all mice were sacrificed. Serum samples, liver tissue, epididymis adipose tissue and feces were harvested for further analysis. The experimental protocol was approved by the Animal Research Committee of the National Yang Ming Chiao Tung University (IACUC no. 1091013), and all procedures followed The Guide for the Care and Use of Laboratory Animals (NIH publication, 85-23, revised 1996) and the guidelines of the Animal Welfare Act, Taiwan. The procedure regarding biochemical characterization is as follows. The serum triglyceride (TG), total cholesterol (TC), high-density lipoprotein-cholesterol (HDL-C), glutamic oxaloacetic transaminase (GOT), glutamic pyruvic transaminase (GPT), albumin (ALB), uric acid (UA), and creatinine (CRE) levels were measured using enzymatic assay kits with a FUJI DRI-CHEM analyzer (Fujifilm, Tokyo, Japan). The LDL-C level was calculated as [(TC)-(HDL-C)-(TG/5)].

[3] = system: HFD-induced obese C57BL/6J mice; experiment: Liver fat deposition and liver damage markers (NAFLD) in HFD-induced obese mice; conditions: for liver weight / ratio of liver weight and body weight / lipid accumulation in the liver tissue (H&E and Oil Red O staining) / hepatic cholesterol (TC) level / hepatic triglyceride (TG) level: HFD mice, 12 weeks oral; for liver weight: CX 10 and 30 mg/kg/day, EGCG 30 mg/kg/day; for ratio of liver weight and body weight: among all groups; for lipid accumulation in the liver tissue (H&E and Oil Red O staining): normal morphology of liver cells maintained; for hepatic cholesterol (TC) level / hepatic triglyceride (TG) level: vs HFD; for serum albumin (ALB) level: compared with ND group, HFD group significantly higher
From the text: as §1, with “regarding immunohistochemical tissue characterization is as follows. During dissection of the mice, epididymis adipose tissue and liver were isolated, weighed, and subsequently fixed in 10% paraformaldehyde in PBS. After overnight fixation, tissues were embedded in paraffin for hematoxylin and eosin (H&E) staining. All specimens were observed microscopically (Carl Zeiss Inc., Germany) at 200× magnification. […] The procedure regarding” for “regarding”, “[(TC)-(HDL-C)-(TG/5)]. The procedure regarding triglyceride and cholesterol analysis of liver tissue is as follows. For triglyceride and cholesterol determinations, mouse liver tissues were extracted and analyzed using triglyceride and cholesterol quantitation assay kits (Abcam, UK), respectively, according to the manufacturer's instruction.” for “[(TC)-(HDL-C)-(TG/5)].”

[4] = CX treatment vs HFD group, 12 weeks oral
[5] = CX at both supplementations (10 and 30 mg/kg/day), 12 weeks

Row | SMILES | insulin resistance index HOMA-IR ([1]; 10 mg/kg/day oral) | fasting insulin concentration (insulin expression) ([1]; 10 mg/kg/day oral) | fasting blood glucose ([1]; 10 mg/kg/day oral) | AUC of IPGTT ([1]; 10 mg/kg/day oral) | insulin resistance index HOMA-IR ([1]; 30 mg/kg/day oral) | fasting insulin concentration (insulin expression) ([1]; 30 mg/kg/day oral) | fasting blood glucose ([1]; 30 mg/kg/day oral) | AUC of IPGTT ([1]; 30 mg/kg/day oral) | serum CRE level, difference to ND group [2] | serum uric acid (UA) level, difference to ND group [2] | serum creatinine (CRE) level [2, 4] | serum uric acid (UA) level [2, 4] | serum GOT (HFD-induced high level) [3, 5] | serum GPT (HFD-induced high level) [3, 5] | liver weight [3] | ratio of liver weight and body weight [3] | lipid accumulation in the liver tissue (H&E and Oil Red O staining) [3] | hepatic cholesterol (TC) level [3] | hepatic triglyceride (TG) level [3] | serum albumin (ALB) level [3]
1 | COc1ccc2[nH]c(=O)oc2c1 [CX, 6-methoxybenzoxazolinone] | significantly lower | significantly lower than that of the HFD group | stable and significantly lower than the HFD group | significantly decreased | significantly lower | significantly lower than that of the HFD group | stable and significantly lower than the HFD group | significantly decreased | no significant difference | no significant difference | decreased | decreased | significantly prevented | significantly prevented | significantly lower than HFD group | did not differ among all groups | greatly ameliorated | much lower | much lower | no difference
2 | O=C(O[C@@H]1Cc2c(O)cc(O)cc2O[C@@H]1c1cc(O)c(O)c(O)c1)c1cc(O)c(O)c(O)c1 [EGCG, epigallocatechin gallate, reference compound] | – | – | – | – | – | – | stable and significantly lower than the HFD group | – | no significant difference | no significant difference | – | – | – | – | significantly lower than HFD group | did not differ among all groups | greatly ameliorated | much lower | much lower | no difference
